Source: patent publication US8841413B2, “Antidiabetic compounds” (Cadila Healthcare Limited, priority 2006, dated 2014)
Where two headings read alike, the source gives them in different places.

Legend:
Human GLP-1 receptor = molecular target: T1, Human GLP-1 receptor (Homo sapiens, UniProt P43220); format: cell-based
T1 construct: The full-length cDNA was cloned in pcDNA3.1(+); expressed in transfected cells
Experimental: The novel peptidomimetics were screened for Human GLP-1 receptor (HGLP-1 R) agonist activity (in vitro), using the cAMP cell-based assay, in stably transfected CHO/human GLP1R cells. […] CHO cells were grown in Ham's F12 medium containing L-Glutamine (2 mM), HEPES (25 mM), NaHCO3 (1.1 g/L) and supplemented with NewBorn Calf Serum (NBCS; 10%), Penicillin (50 U/ml (v/v)) and Streptomycin (50 ug/ml (v/v)). Cells were split every 3 days 1:8.
The cDNA encoding the human GLP-1 receptor was isolated by RT-PCR according to standard protocol. The full-length cDNA was cloned in pcDNA3.1(+). […] Clones expressing the receptor were generated by G418 (800 μg/ml active, Sigma) selection. The stable clones were thereafter maintained at 500 ug/ml (G418). The selected clone was used between passages 9-25 for cAMP assays.
The trypsin was inactivated using Ham's F12 medium containing 10% NBCS and the cells were suspended in 2 ml of complete medium. […] The medium was aspirated off from the 12 well plate and the cells were washed once using Ham's F12 (plain). […] The cells were incubated with the test compounds for 30 min in humidified atmosphere and 37° C. After the incubation, the medium was removed and cells were washed once with plain Ham's F12. Subsequently, the cells were lysed by adding 500 ul of ice cold 0.1 N HCl to each well and shaking for 30 minutes at 200 rpm. […] The total cAMP was estimated from the sample according to the manufacturer's protocol using Cyclic AMP immunoassay kit (R&D systems, Minneapolis. MN). The remaining supernatant is used to determine the protein concentration using micro BCA (Sigma). Data is calculated as percent of control (Vehicle: water) and expressed as Mean±SD.

DPP IV = DPP IV (Homo sapiens, UniProt P27487); assay: Stability against DPP IV enzyme; format: in vitro ADME; conditions: 2 μM, 37° C.; for half-life: read-out: half-life (t1/2) with DPP-IV enzyme
Sequence of DPP IV (P27487 whole entry, species assumed): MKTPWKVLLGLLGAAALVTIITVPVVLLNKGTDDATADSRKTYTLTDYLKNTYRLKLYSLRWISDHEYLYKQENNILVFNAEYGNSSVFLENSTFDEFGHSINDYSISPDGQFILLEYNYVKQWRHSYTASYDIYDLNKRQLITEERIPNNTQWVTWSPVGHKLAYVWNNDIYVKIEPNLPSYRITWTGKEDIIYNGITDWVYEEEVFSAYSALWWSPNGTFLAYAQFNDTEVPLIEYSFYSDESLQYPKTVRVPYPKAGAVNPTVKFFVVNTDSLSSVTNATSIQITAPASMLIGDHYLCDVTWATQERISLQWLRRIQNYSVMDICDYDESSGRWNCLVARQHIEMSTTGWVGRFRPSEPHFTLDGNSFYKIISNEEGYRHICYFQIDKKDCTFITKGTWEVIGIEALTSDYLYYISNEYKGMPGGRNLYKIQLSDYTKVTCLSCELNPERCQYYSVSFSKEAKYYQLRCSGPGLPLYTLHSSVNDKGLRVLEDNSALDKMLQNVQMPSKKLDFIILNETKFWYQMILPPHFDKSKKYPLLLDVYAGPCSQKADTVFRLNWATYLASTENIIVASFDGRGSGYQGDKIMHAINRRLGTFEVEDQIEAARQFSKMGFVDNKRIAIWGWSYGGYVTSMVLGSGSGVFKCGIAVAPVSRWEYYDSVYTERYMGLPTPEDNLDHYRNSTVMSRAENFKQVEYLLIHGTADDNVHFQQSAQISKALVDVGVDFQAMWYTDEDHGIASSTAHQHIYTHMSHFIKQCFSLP
Experimental: (§1) Reactions were terminated by the addition of TFA/H2O (15 mL, 10% (v/v)). […] The column was equilibrated with TFA/H2O, at a flow rate of 1 mL/min. […] The absorbance was monitored at 206 nm using UV detector and peaks were collected manually prior to ESI-MS analysis.

[1] = Stability in human plasma; format: in vitro ADME; conditions: 2 μM, 37° C.; for half-life: human, plasma, read-out: half-life (t1/2) in human plasma
Experimental: as §1

[2] = Stability in simulated gastric fluid; format: in vitro ADME; conditions: 2 μM, 37° C., pH 1.5, pepsin; for half-life: simulated gi fluid, read-out: half-life (t1/2) in simulated gastric fluid
Experimental: as §1

[3] = Stability in simulated intestinal fluid; format: in vitro ADME; conditions: 2 μM, 37° C., pH 7.5; for half-life: simulated gi fluid, read-out: half-life (t1/2) in simulated intestinal fluid
Experimental: as §1

[4] = Stability against liver microsomes; format: in vitro ADME, human; conditions: 2 μM, 37° C.; for half-life: human, microsomes, read-out: half-life (t1/2) with liver microsomes
Experimental: as §1

T1 sequence (P43220 24-463): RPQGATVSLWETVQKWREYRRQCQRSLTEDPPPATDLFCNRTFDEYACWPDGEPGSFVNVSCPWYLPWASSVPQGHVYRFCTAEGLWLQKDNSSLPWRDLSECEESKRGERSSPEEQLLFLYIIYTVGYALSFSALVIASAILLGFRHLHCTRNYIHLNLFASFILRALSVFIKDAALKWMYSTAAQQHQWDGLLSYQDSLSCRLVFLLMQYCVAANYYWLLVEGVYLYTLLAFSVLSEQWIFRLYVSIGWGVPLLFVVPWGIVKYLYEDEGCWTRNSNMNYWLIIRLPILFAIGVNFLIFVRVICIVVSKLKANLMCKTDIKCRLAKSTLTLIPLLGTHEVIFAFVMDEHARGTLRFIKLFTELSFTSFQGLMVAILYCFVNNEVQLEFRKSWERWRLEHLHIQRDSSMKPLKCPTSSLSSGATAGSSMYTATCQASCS

SMILES	Human GLP-1 R activity (cAMP release), % activity with respect to control (Human GLP-1 receptor; 1 nM test compound) [%]	Human GLP-1 R activity (cAMP release), % activity with respect to control (Human GLP-1 receptor; 10 nM test compound) [%]	Human GLP-1 R activity (cAMP release), % activity with respect to control (Human GLP-1 receptor; 100 nM test compound) [%]	Human GLP-1 R activity (cAMP release), % activity with respect to control (Human GLP-1 receptor; 1 μM test compound) [%]	Human GLP-1 R activity (cAMP release), % activity with respect to control (Human GLP-1 receptor; 10 μM test compound) [%]	% degradation in 24 h when incubated with DPP-IV enzyme (DPP IV) [%]	half-life (DPP IV) [h]	% degradation in 24 h when incubated with human plasma [1] [%]	half-life [1] [h]	% degradation in 24 h when incubated with simulated gastric fluid [2] [%]	half-life [2] [h]	% degradation in 24 h when incubated with simulated intestinal fluid [3] [%]	half-life [3] [h]	half-life (t1/2) with liver microsomes [4]	% degradation in 24 h when incubated with liver microsomes [4] [%]	half-life [4] [h]
CCc1cc(OC)ccc1-c1ccc(CC(NC(=O)[C@H](CC(=O)O)NC(=O)[C@H](CO)NC(=O)[C@@H](NC(=O)C(C)(Cc2ccccc2F)NC(=O)[C@@H](NC(=O)CNC(=O)[C@H](CCC(N)=O)NC(=O)C2(NC(=O)[C@@H](N)Cc3c[nH]cn3)CC2)[C@@H](C)O)[C@@H](C)O)C(=O)NC(Cc2ccc(-c3ccccc3C)nc2)C(N)=O)cc1 (single isomer, unassigned) [compound 34]	99 ± 0.12	99 ± 0.08	99 ± 0.11	99 ± 0.12	99 ± 0.16	00	> 24	00	> 24	00	> 24	00	> 24	(5) h	32	–
CCc1cc(OC)ccc1-c1ccc(CC(NC(=O)[C@H](CC(=O)O)NC(=O)[C@H](CO)NC(=O)[C@@H](NC(=O)[C@H](Cc2ccccc2)NC(=O)[C@@H](NC(=O)CNC(=O)[C@H](CCC(N)=O)NC(=O)C(C)(C)NC(=O)[C@@H](N)Cc2c[nH]cn2)[C@@H](C)O)[C@@H](C)O)C(=O)NC(Cc2ccc(-c3ccccc3C)nc2)C(N)=O)cc1 (single isomer, unassigned) [compound 14]	62 ± 0.11	94 ± 0.09	99 ± 0.06	99 ± 0.14	99 ± 0.19	00	> 24	00	> 24	55	4	00	> 24	–	84	2
CCc1cc(OC)ccc1-c1ccc(CC(NC(=O)[C@H](CC(=O)O)NC(=O)[C@H](CO)NC(=O)[C@@H](NC(=O)[C@H](Cc2ccccc2)NC(=O)[C@@H](NC(=O)CNC(=O)[C@H](CCC(N)=O)NC(=O)C2(NC(=O)[C@@H](N)Cc3c[nH]cn3)CC2)[C@@H](C)O)[C@@H](C)O)C(=O)NC(Cc2ccc(-c3ccccc3C)cc2)C(N)=O)cc1 (single isomer, unassigned) [compound 17]	78 ± 0.12	99 ± 0.15	99 ± 0.18	99 ± 0.03	99 ± 0.09	00	> 24	00	> 24	49	4	00	> 24	–	82	2

Results, then the compound that gave them:

Human GLP-1 R activity (cAMP release), % activity with respect to control (Human GLP-1 receptor; 1 nM test compound) [%]	Human GLP-1 R activity (cAMP release), % activity with respect to control (Human GLP-1 receptor; 10 nM test compound) [%]	Human GLP-1 R activity (cAMP release), % activity with respect to control (Human GLP-1 receptor; 100 nM test compound) [%]	Human GLP-1 R activity (cAMP release), % activity with respect to control (Human GLP-1 receptor; 1 μM test compound) [%]	Human GLP-1 R activity (cAMP release), % activity with respect to control (Human GLP-1 receptor; 10 μM test compound) [%]	% degradation in 24 h when incubated with DPP-IV enzyme (DPP IV) [%]	half-life (DPP IV) [h]	% degradation in 24 h when incubated with human plasma [1] [%]	half-life [1] [h]	% degradation in 24 h when incubated with simulated gastric fluid [2] [%]	half-life [2] [h]	% degradation in 24 h when incubated with simulated intestinal fluid [3] [%]	half-life [3] [h]	half-life (t1/2) with liver microsomes [4]	% degradation in 24 h when incubated with liver microsomes [4] [%]	half-life [4] [h]	SMILES
99 ± 0.06	99 ± 0.06	99 ± 0.08	99 ± 0.10	99 ± 0.12	00	> 24	00	> 24	00	> 24	00	> 24	(5) h	32	–	CCc1cc(OC)ccc1-c1ccc(CC(NC(=O)[C@H](CC(=O)O)NC(=O)[C@H](CO)NC(=O)[C@@H](NC(=O)C(C)(Cc2ccccc2F)NC(=O)[C@@H](NC(=O)CNC(=O)[C@H](CCC(N)=O)NC(=O)C(C)(C)NC(=O)[C@@H](N)Cc2c[nH]cn2)[C@@H](C)O)[C@@H](C)O)C(=O)NC(Cc2ccc(-c3ccccc3C(F)(F)F)cc2)C(N)=O)cc1 (single isomer, unassigned) [compound 32]
93 ± 0.10	99 ± 0.46	99 ± 0.41	99 ± 0.66	99 ± 0.03	00	> 24	00	> 24	00	> 24	00	> 24	(5) h	31	–	CCc1cc(OC)ccc1-c1ccc(CC(NC(=O)[C@H](CC(=O)O)NC(=O)[C@H](CO)NC(=O)[C@@H](NC(=O)C(C)(Cc2ccccc2F)NC(=O)[C@@H](NC(=O)CNC(=O)[C@H](CCC(N)=O)NC(=O)C(C)(C)NC(=O)[C@@H](N)Cc2c[nH]cn2)[C@@H](C)O)[C@@H](C)O)C(=O)NC(Cc2ccc(-c3ccccc3F)cc2)C(N)=O)cc1 (single isomer, unassigned) [compound 31]
66 ± 0.022	97 ± 0.46	99 ± 0.41	99 ± 0.66	99 ± 0.03	00	> 24	00	> 24	45	4	00	> 24	–	85	2	CCc1cc(OC)ccc1-c1ccc(CC(NC(=O)[C@H](CC(=O)O)NC(=O)[C@H](CO)NC(=O)[C@@H](NC(=O)[C@H](Cc2ccccc2)NC(=O)[C@@H](NC(=O)CNC(=O)[C@H](CCC(N)=O)NC(=O)C(C)(C)NC(=O)[C@@H](N)Cc2c[nH]cn2)[C@@H](C)O)[C@@H](C)O)C(=O)NC(Cc2ccc(-c3ccccc3F)cc2)C(N)=O)cc1 (single isomer, unassigned) [compound 15]
